Measurements: patent EP4671240A1, “SALT CONTAINING AROMATIC RING DERIVATIVE ANTAGONIST, PREPARATION METHOD THEREFOR, AND APPLICATION THEREOF” (Jiangsu Hansoh Pharmaceutical Group Co., Ltd., priority 2023, dated 2024)

Assays:
[1] = Rat pharmacokinetic evaluation assay (oral); type: in vivo; settings: male, SD rats, p.o. 5 mg/kg, plasma; for MRT inf: read-out: MRT 0-∞
Experimental: 6. Experimental conclusion: It can be seen from the data in the table that the example compounds shown in the present invention show good antagonistic effects in the experiment of the effect on calcium current in cells stably expressing ETA receptors. 2. Rat pharmacokinetic evaluation assay 1. Study objective: SD rats were used as test animals to study the pharmacokinetic behaviour of the compounds of the present invention in rat (plasma) after oral administration at a dose of 5 mg/kg. 2. Experimental scheme: • 2.1 Experimental drugs: The example compounds of the present invention, made in house. • 2.2 Experimental animals: 3 SD rats/group, male, from Shanghai Jiesijie Experimental Animal Co., Ltd., animal production license number (SCXK (Shanghai) 2013-0006 N0.311620400001794). 2.3 Preparation formulation: 0.5% CMC-Na (1% Tween80) was dissolved by ultrasonication, and formulated into a clear solution or homogeneous suspension. 2.4 Administration: • p.o. respectively after the rats were fasted overnight; • the p.o. dose was 5 mg/kg and the administration volume was 10 mL/kg. 2.5 Sample collection: After oral administration of rats, 0.2 mL of blood was collected from the jugular vein at 0.25 h, 0.5 h, 1.0 h, 2.0 h, and 4.0 h, placed in an EDTA-2K test tube, and centrifuged at 6000 rpm for 6 min at 4°C to separate plasma which was stored at - 80°C; the animals were fed 4 h after administration. 2.6 Sample treatment: • 1) Acetonitrile (160 µL) was added to plasma sample (40 µL) for precipitation, and the mixture was centrifuged at 3500 × g for 5-20 min. • 2) The treated supernatant solution was taken and subjected to LC/MS/MS to analyse the concentrations of the test compound. LC/MS/MS analysis instrument: AB Sciex API 4000 Qtrap. 2.7 Liquid phase analysis: • Liquid phase conditions: Shimadzu LC-20AD pump • Chromatographic column: Agilent ZORBAX XDB-C18 (50×2.1 mm, 3.5 µm), mobile phase: liquid A: 0.1% formic acid in water, liquid B: acetonitrile • Flow rate: 0.4 mL/min • Elution time: 0-4.0 min, the eluent was as follows:
The main pharmacokinetic parameters were calculated using WinNonlin 6.1. The results of pharmacokinetic experiments in rats are as shown in Table 13 below: Table 13: Pharmacokinetic parameters of the compounds of the present invention in rats after oral administration

CYP450 2C19 = target: T1, CYP450 2C19 (Homo sapiens, UniProt P33261); assay: CYP enzyme single-point inhibition assay, 2C19; type: in vitro ADME; settings: human liver microsomes, single-point method
T1 construct: Human liver microsome incubation system was used; from tissue; host or cells: human liver microsomes
T1 sequence (P33261 whole entry): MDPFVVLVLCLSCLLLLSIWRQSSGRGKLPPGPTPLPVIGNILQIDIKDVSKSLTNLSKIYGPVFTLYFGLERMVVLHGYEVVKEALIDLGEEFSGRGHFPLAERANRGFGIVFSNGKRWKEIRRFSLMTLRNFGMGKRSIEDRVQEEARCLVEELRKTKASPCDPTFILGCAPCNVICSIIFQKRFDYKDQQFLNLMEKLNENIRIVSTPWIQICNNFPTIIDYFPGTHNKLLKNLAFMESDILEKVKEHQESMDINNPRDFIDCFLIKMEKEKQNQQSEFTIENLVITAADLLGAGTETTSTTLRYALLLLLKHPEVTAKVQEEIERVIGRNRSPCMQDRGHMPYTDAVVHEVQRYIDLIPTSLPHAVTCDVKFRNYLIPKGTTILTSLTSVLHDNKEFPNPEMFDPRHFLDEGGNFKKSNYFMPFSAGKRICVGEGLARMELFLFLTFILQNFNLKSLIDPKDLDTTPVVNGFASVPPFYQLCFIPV
Experimental: Human liver microsome incubation system was used, and the single-point method was used to quickly predict the inhibition on CYP450 enzyme subtypes (1A2, 2C19, 2D6, 3A4-M, and 3A4-T) by compounds.
For 2.5 mM NADPH, 4.165 mg of NADPH (reduced nicotinamide adenine dinucleotide phosphate) was weighed and 100 mM phosphate buffer was added to a final volume of 2 mL. For 0.25 mg/mL microsomes, 50 µL of 20 mg/mL microsomes was mixed with […] of 100 mM phosphate buffer evenly.
The test example compounds were weighed, diluted to 10 mM with DMSO, and then diluted to 100 µM with 100 mM phosphate buffer.
• 1. Liver microsomes (40 µL), substrate (10 µL), and test compound (10 µL) were added to a 96-well plate, and the mixture was pre-incubated for 3 min. • 2. NADPH (40 µL) was added. • 3. At 20 min, acetonitrile stop solution containing internal standard (300 µL) was added. • 4. The mixture was centrifuged and the sample was loaded.

Row | SMILES | AUC(0-inf) [1] [ng·h/mL] | Cmax [1] [ng/mL] | Tmax [1] [min] | MRT inf [1] [h] | IC50 (CYP450 2C19) [µM]
1 | [2H]C([2H])(c1ccc(-c2ccccc2S(=O)(=O)Nc2noc(C)c2Cl)c(COCC)c1)N1C(=O)C2(CCCC2)N=C1CCCC [Example 2, 4'-((2-Butyl-4-oxo-1,3-diazaspiro[4.4]non-1-en-3-yl)methyl-d2)-N-(4-chloro-5-methylisoxazol-3-yl)-2'-(ethoxymethyl)-[1,1'-biphenyl]-2-sulfonamide] | 10200 | 1690 | 30 | 8.4 | > 100
2 | CCCCC1=NC2(CCCC2)C(=O)N1Cc1ccc(-c2ccccc2S(=O)(=O)Nc2noc(C)c2Cl)c(COCC)c1 [Example 8, 2-[4-[(2-Butyl-4-oxo-1,3-diazaspiro[4.4]non-1-en-3-yl)methyl]-2-(ethoxymethyl)phenyl]-N-(4-chloro-5-methyl-isoxazol-3-yl)benzenesulfonamide] | 16000 | 2140 | 30 | 8.6 | > 100
